From patent US8778941B2, “TRPM8 antagonists and their use in treatments” (AMGEN Inc., priority 2011, dated 2014)

molecular target: T1, human TRPM8 (Homo sapiens, UniProt Q7Z2W7); experiment: Luminescence readout assay for measuring intracellular calcium (aequorin), hTRPM8 antagonism; type: cell-based; conditions: CHO cell line expressing human TRPM8 and aequorin; activation by icilin, L-menthol or cold buffer (table does not say which)
T1 construct: expressed in transfected cells; host or cells: Chinese hamster ovary (CHO) cells, T-REx tetracycline-inducible expression system (Invitrogen), co-transfected with pcDNA3.1 jellyfish aequorin
T1 sequence (Q7Z2W7 whole entry): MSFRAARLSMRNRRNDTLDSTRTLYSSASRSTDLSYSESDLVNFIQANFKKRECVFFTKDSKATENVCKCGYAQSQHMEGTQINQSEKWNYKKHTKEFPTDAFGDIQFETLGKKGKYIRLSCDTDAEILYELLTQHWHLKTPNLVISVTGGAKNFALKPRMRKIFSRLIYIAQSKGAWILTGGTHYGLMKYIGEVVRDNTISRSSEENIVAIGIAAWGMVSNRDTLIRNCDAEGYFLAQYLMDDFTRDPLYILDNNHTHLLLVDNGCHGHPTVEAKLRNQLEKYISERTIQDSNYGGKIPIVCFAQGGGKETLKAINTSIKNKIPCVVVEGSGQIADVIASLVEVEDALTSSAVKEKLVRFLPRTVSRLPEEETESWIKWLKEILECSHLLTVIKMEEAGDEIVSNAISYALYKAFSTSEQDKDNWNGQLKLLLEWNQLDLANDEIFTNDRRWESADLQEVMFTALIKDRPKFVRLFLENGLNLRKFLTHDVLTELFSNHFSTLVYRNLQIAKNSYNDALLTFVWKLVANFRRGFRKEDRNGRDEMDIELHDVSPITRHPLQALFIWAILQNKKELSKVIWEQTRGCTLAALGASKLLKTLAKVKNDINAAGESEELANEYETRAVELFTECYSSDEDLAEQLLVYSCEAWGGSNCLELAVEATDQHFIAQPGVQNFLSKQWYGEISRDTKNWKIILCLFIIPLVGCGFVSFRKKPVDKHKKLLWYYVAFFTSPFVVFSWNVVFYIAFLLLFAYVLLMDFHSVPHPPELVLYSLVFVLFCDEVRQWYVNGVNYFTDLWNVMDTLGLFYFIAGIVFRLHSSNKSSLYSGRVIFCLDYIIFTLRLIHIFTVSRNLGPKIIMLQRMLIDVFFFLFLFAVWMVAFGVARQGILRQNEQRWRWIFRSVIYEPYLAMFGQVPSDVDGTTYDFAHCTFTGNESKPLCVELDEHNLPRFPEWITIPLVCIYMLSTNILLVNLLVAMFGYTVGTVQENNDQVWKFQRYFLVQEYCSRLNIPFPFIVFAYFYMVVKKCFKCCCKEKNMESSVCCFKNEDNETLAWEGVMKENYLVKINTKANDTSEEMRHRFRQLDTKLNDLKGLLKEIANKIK
Method: Luminescence Readout Assay for Measuring Intracellular Calcium.
A stable Chinese hamster ovary cell line expressing human TRPM8 was generated using tetracycline inducible T-REx™ expression system from Invitrogen, Inc. (Carlsbad, Calif.). […] Twenty four hours before the assay, cells were seeded in 96-well plates and TRPM8 expression was induced with 0.5 μg/mL tetracycline. […] Potential antagonists were added 2.5 min prior to the addition of agonist, […], 100 µM L-menthol, or 1 min prior to the addition of cold buffer (<10° C.). The luminescence was measured by a CCD camera based FLASH-luminometer built by Amgen, Inc. A cooling device attached to FLASH luminometer was used for cold activation.

Row | Compound | IC50 [µM]
1 | COC(=O)[C@H](CCSC)NC(=O)N[C@@H](c1ccc(C(F)(F)F)cc1)c1ncccc1C(F)(F)F [Example 78, (S)-methyl 4-(methylthio)-2-(3-((S)-(4-(trifluoro-methyl)-phenyl)(3-(trifluoro-methyl)-pyridin-2-yl)-methyl)-ureido)-butanoate (2,2,2-trifluoro-acetate)] | 1.23
2 | CC(C)(C)OC(=O)N[C@@H](c1ccc(OC(F)(F)F)c(F)c1)c1ncccc1F [Example 174, (S)-tert-Butyl((3-fluoro-4-(trifluoromethoxy)phenyl)(3-fluoropyridin-2-yl)methyl)carbamate] | 0.474
3 | COc1cc(CCNC(=O)N[C@@H](c2ccc(C(F)(F)F)cc2)c2ncccc2C(F)(F)F)cc(OC)c1 [Example 93, (S)-1-(3,5-dimethoxy-phenethyl)-3-((4-(trifluoro-methyl)-phenyl)(3-(trifluoro-methyl)-pyridin-2-yl)-methyl)urea (2,2,2-trifluoro-acetate)] | 1.44
4 | O=C(Nc1cccnc1)N[C@H](c1cccc(C(F)(F)F)c1)c1ccc(C(F)(F)F)c(F)c1 [Example 117, (R)-1-((3-fluoro-4-(trifluoro-methyl)-phenyl)(3-(trifluoro-methyl)-phenyl)-methyl)-3-(pyridin-3-yl)-urea (2,2,2-trifluoro-acetate)] | 1.75
5 | O=C(Nc1cccnc1)N[C@@H](c1ccc(C(F)(F)F)cc1)c1cnccc1C(F)(F)F [Example 119, (S)-1-(pyridin-3-yl)-3-((4-(trifluoro-methyl)-phenyl)(4-(trifluoro-methyl)-pyridin-3-yl)-methyl)urea bis(2,2,2-trifluoro-acetate)] | 0.375
6 | O=C(Nc1ccc(F)c([N+](=O)[O-])c1)N[C@@H](c1ccc(C(F)(F)F)cc1)c1ncccc1C(F)(F)F [Example 139, (S)-1-(4-fluoro-3-nitrophenyl)-3-((4-(trifluoro-methyl)-phenyl)(3-(trifluoro-methyl)-pyridin-2-yl)-methyl)urea (2,2,2-trifluoro-acetate)] | 1.31
7 | Cc1cc(C)c(NC(=O)N[C@@H](c2ccc(C(F)(F)F)cc2)c2ncccc2C(F)(F)F)c(C)c1 [Example 186, (S)-1-mesityl-3-((4-(trifluoro-methyl)phenyl) (3-(trifluoro-methyl)pyridin-2-yl)methyl)urea (2,2,2-trifluoro-acetate)] | 1.11
8 | C[C@H](NC(=O)N[C@@H](c1ccc(C(F)(F)F)cc1)c1ncccc1C(F)(F)F)c1cccc2ccccc12 [Example 33, 1-((S)-1-(naphthalen-1-yl)ethyl)-3-((S)-(4-(trifluoro-methyl)-phenyl)(3-(trifluoro-methyl)-pyridin-2-yl)-methyl)urea (2,2,2-trifluoro-acetate)] | 1.9
9 | CCc1cccc(C(C)C)c1NC(=O)N[C@@H](c1ccc(C(F)(F)F)cc1)c1ncccc1C(F)(F)F [Example 91, (S)-1-(2-ethyl-6-isopropylphenyl)-3-((4-(trifluoro-methyl)-phenyl)(3-(trifluoro-methyl)-pyridin-2-yl)-methyl)urea (2,2,2-trifluoro-acetate)] | 0.67
10 | O=C(NCC1CCS(=O)(=O)C1)N[C@@H](c1ccc(C(F)(F)F)cc1)c1ncccc1C(F)(F)F (stereo partly drawn) [Example 64, 1-((3- Sulfonylcyclopentyl)-methyl)-3-((S)-(4-(trifluoro-methyl)-phenyl)(3-(trifluoro-methyl)-pyridin-2-yl)-methyl)urea (2,2,2-trifluoro-acetate)] | 5.65
11 | O=C(Nc1cccnc1)N[C@@H](c1cnc2c(F)cccc2c1)c1ncccc1C(F)(F)F [Example 14, (S)-1-((8-fluoro-quinolin-3-yl)-(3-(trifluoro-methyl)-pyridin-2-yl)-methyl)-3-(pyridin-3-yl)-urea] | 0.533
12 | O=C(Nc1ccc(-c2noc(=O)[nH]2)cc1)N[C@@H](c1ccc(C(F)(F)F)cc1)c1ncccc1C(F)(F)F [Example 148, (S)-1-(4-(5-Oxo-4,5-dihydro-1,2,4-oxadiazol-3-yl)phenyl)-3-((4-(trifluoromethyl)phenyl)(3-(trifluoromethyl)pyridin-2-yl)methyl)urea] | 1.61
13 | COC(=O)c1cccc(NC(=O)N[C@@H](c2ccc(C(F)(F)F)cc2)c2ncccc2C(F)(F)F)c1C [Example 182, (S)-methyl 2-methyl-3-(3-((4-(trifluoro-methyl)phenyl) (3-(trifluoro-methyl)pyridin-2-yl)methyl)ureido)benzoate (2,2,2-trifluoro-acetate)] | 0.425
14 | COc1cc([N+](=O)[O-])ccc1NC(=O)N[C@@H](c1ccc(C(F)(F)F)cc1)c1ncccc1C(F)(F)F [Example 141, (S)-1-(2-methoxy-4-nitrophenyl)-3-((4-(trifluoro-methyl)-phenyl)(3-(trifluoro-methyl)-pyridin-2-yl)-methyl)urea (2,2,2-trifluoro-acetate)] | 0.36
15 | O=C(NCc1ccc(Cl)cc1Cl)N[C@@H](c1ccc(C(F)(F)F)cc1)c1ncccc1C(F)(F)F [Example 135, (S)-1-(2,4-dichlorobenzyl)-3-((4-(trifluoro-methyl)-phenyl)(3-(trifluoro-methyl)-pyridin-2-yl)-methyl)urea (2,2,2-trifluoro-acetate)] | 0.829
16 | CCOc1ccccc1CNC(=O)N[C@@H](c1ccc(C(F)(F)F)cc1)c1ncccc1C(F)(F)F [Example 133, (S)-1-(2-ethoxybenzyl)-3-((4-(trifluoro-methyl)-phenyl)(3-(trifluoro-methyl)-pyridin-2-yl)-methyl)urea (2,2,2-trifluoro-acetate)] | 1.59
17 | O=C(NCc1ccc(Cl)cc1)N[C@@H](c1ccc(C(F)(F)F)cc1)c1ncccc1C(F)(F)F [Example 134, (S)-1-(4-chlorobenzyl)-3-((4-(trifluoro-methyl)-phenyl)(3-(trifluoro-methyl)-pyridin-2-yl)-methyl)urea (2,2,2-trifluoro-acetate)] | 1.07

Compounds with a lower IC50, results first:

Row | IC50 [µM] | Compound
18 | 0.332 | O=C(NCc1ccccc1Cl)N[C@@H](c1ccc(C(F)(F)F)cc1)c1ncccc1C(F)(F)F [Example 73, (S)-1-(2-chlorobenzyl)-3-((4-(trifluoro-methyl)-phenyl)(3-(trifluoro-methyl)-pyridin-2-yl)-methyl)urea (2,2,2-trifluoro-acetate)]
19 | 0.299 | CC(C)(C)OC(=O)N[C@@H](c1ccc(C(F)(F)F)cc1)c1ncccc1Br [Example 173, (S)-tert-Butyl((3-bromopyridin-2-yl)(4-(trifluoromethyl)-phenyl)methyl)carbamate]
20 | 0.294 | O=C(Nc1cc(Cl)nc(Cl)c1)N[C@@H](c1ccc(C(F)(F)F)cc1)c1ncccc1C(F)(F)F [Example 76, (S)-1-(2,6-dichloropyridin-4-yl)-3-((4-(trifluoro-methyl)-phenyl)(3-(trifluoro-methyl)-pyridin-2-yl)-methyl)urea (2,2,2-trifluoro-acetate)]
21 | 0.262 | COC(=O)c1cccc(NC(=O)N[C@@H](c2ccc(C(F)(F)F)cc2)c2ncccc2C(F)(F)F)c1 [Example 102, (S)-methyl 3-(3-((4-(trifluoro-methyl)-phenyl)(3-(trifluoro-methyl)-pyridin-2-yl)-methyl)-ureido)-benzoate (2,2,2-trifluoro-acetate)]
22 | 0.235 | Cc1nc(-c2cccc(NC(=O)N[C@@H](c3ccc(C(F)(F)F)cc3)c3ncccc3C(F)(F)F)c2)no1 [Example 77, (S)-1-(3-(5-methyl-1,2,4-oxadiazol-3-yl)phenyl)-3-((4-(trifluoro-methyl)-phenyl)(3-(trifluoro-methyl)-pyridin-2-yl)-methyl)urea (2,2,2-trifluoro-acetate)]
23 | 0.199 | O=C(NCc1ccccc1F)N[C@@H](c1ccc(C(F)(F)F)cc1)c1ncccc1C(F)(F)F [Example 87, (S)-1-(2-fluorobenzyl)-3-((4-(trifluoro-methyl)-phenyl)(3-(trifluoro-methyl)-pyridin-2-yl)-methyl)urea (2,2,2-trifluoro-acetate)]
24 | 0.107 | CC#Cc1cccnc1[C@@H](NC(=O)NC(C)(C)C)c1ccc(C(F)(F)F)cc1 [Example 42, (S)-1-(tert-butyl)-3-((3-(prop-1-yn-1-yl)pyridin-2-yl)(4-(trifluoro-methyl)-phenyl)-methyl)urea]
25 | 0.08 | N#Cc1cccc(NC(=O)N[C@@H](c2ccc(C(F)(F)F)cc2)c2ncccc2C(F)(F)F)c1 [Example 97, (S)-1-(3-cyanophenyl)-3-((4-(trifluoro-methyl)-phenyl)(3-(trifluoro-methyl)-pyridin-2-yl)-methyl)urea (2,2,2-trifluoro-acetate)]
26 | 0.076 | O=C(Nc1ccc[nH]c1=O)N[C@@H](c1ccc(C(F)(F)F)cc1)c1ncccc1F [Example 163, (S)-1-((3-fluoropyridin-2-yl)(4-(trifluoro-methyl)-phenyl)-methyl)-3-(2-oxo-1,2-dihydropyridin-3-yl)urea]
27 | 0.07 | C[C@@H](NC(=O)N[C@@H](c1ccc(C(F)(F)F)c(F)c1)c1ncccc1C(F)(F)F)C(F)(F)F [Example 152, 1-((S)-(3-fluoro-4-(trifluoro-methyl)-phenyl)(3-(trifluoro-methyl)-pyridin-2-yl)-methyl)-3-((R)-1,1,1-trifluoro-propan-2-yl)-urea (2,2,2-trifluoro-acetate)]
28 | 0.041 | CCc1ccc([C@H](NC(=O)Nc2cccnc2)c2ncccc2C(F)(F)F)cc1 [Example 27, (S)-1-((4-ethylphenyl)-(3-(trifluoro-methyl)-pyridin-2-yl)-methyl)-3-(pyridin-3-yl)-urea]
29 | 0.022 | C=CCc1cccnc1[C@@H](NC(=O)Nc1cccnc1)c1ccc(C(F)(F)F)cc1 [Example 43, (S)-1-((3-allylpyridin-2-yl)(4-(trifluoromethyl)phenyl)-methyl)-3-(pyridin-3-yl)urea]
